The values below come from patent US5159081A, “Intermediates of peripherally selective N-carbonyl-3,4,4-trisubstituted piperidine opioid antagonists” (Eli Lilly and Company, priority 1991, dated 1992).

The term Ki denotes the equilibrium dissociation constant of an inhibitor or competing ligand from its target.

The structures appear in SMILES notation. Counter-ions that a name gives are not always drawn. Like-named read-outs stand apart in the source and are kept apart here.

One test deals with T1, opioid receptor (Mus musculus, UniProt P42866).
T1 construct: Five CF-1 male mice (Charles River, Portage, MI); from tissue; host or cells: living CF-1 male mice (whole animal, endogenous receptor)
The test can be described thus: in vivo. Also on record: species or system CF-1 male mice. As to conditions: sc.

A further test concerns the target T2, mu receptor (Rattus norvegicus, UniProt P33535).
T2 construct: The brain tissue, rat whole brain minus cerebellum for mu was homogenized; from tissue; host or cells: brain minus cerebellum of male Sprague Dawley rats, homogenate fraction
Kind of test: Naloxone [3H] opioid receptor binding assay (mu receptor). Also on record: species or system rat (male Sprague Dawley).

Test [1] has as its system peripheral opioid receptors. Kind of test: mouse diarrhea test: precipitated diarrhea in morphine-maintained mice (peripheral opioid activity). Format: in vivo.
The target of test [2] is peripheral opioid receptors (Mus musculus, UniProt P42866). The description is as above. It counts as in vivo. As to conditions: mouse diarrhea test, morphine-maintained mice, subcutaneous or oral, 30 min observation.
The mark [3] stands for this setting: mouse writhing test, […], s.c. 20 min before acetic acid, read-out: AD50 (the source's name).
The mark [4] stands for this setting: 20 min, pH 7.4, read-out: % displacement at 10 nM.
Where [5] appears, read: 20 min, pH 7.4, read-out: % displacement at 100 nM.
Where [6] appears, read: […], rat whole brain minus cerebellum, [3H]naloxone 0.5 nM, pH 7.4, 37° C., 20 min, read-out: Ki.
[7] abbreviates: AD50 mouse writhing / ED50 mouse diarrhea, higher = greater relative peripheral antagonism.
Setting [8] is: mouse writhing test, dose of antagonist that reduced inhibition of writhing by 1.25 mg/kg morphine sulfate to 50%, s.c. 20 min before acetic acid, read-out: AD50 (the source's name).
Where [9] appears, read: 20 min, pH 7.4, 10 nM test compound, [3H]naloxone 0.5 nM, mu receptor, read-out: % displacement at 10 nM.
Where [10] appears, read: 20 min, pH 7.4, 100 nM test compound, [3H]naloxone 0.5 nM, mu receptor, read-out: % displacement at 100 nM.

T1 sequence (P42866 whole entry): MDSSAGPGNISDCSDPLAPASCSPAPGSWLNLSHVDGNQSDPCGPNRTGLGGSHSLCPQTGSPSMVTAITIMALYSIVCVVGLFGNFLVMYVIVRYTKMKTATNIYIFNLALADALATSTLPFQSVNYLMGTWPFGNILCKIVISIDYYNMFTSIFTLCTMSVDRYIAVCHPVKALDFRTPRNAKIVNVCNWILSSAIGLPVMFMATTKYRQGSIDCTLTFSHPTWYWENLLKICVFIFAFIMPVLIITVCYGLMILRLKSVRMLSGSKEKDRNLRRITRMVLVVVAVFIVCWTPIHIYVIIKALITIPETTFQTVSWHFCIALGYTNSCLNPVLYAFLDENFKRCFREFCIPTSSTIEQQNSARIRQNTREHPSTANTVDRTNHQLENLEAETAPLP
Sequence of peripheral opioid receptors (Mus musculus, UniProt P42866) (P42866 whole entry): as above
T2 sequence (P33535 whole entry): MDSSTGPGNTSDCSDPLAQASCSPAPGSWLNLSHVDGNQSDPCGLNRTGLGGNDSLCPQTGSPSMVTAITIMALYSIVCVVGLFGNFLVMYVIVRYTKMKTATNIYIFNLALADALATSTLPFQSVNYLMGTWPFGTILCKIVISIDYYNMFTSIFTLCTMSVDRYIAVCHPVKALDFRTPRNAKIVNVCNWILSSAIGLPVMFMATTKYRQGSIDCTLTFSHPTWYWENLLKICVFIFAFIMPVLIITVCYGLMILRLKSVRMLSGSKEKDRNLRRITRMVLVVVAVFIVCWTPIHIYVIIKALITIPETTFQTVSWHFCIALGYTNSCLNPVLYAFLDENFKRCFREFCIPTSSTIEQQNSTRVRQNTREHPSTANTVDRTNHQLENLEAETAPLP

For the compound `CCOC(=O)CCC(=O)NC(CCN1CC[C@@](C)(c2cccc(O)c2)[C@@H](C)C1)CC(C)C` (single isomer, unassigned) [Example 2A, 4-[[1-[2-[4-(3-hydroxyphenyl)-3,4-dimethyl-1-piperidinyl]-ethyl]-3-methylbutyl)amino]-4-oxobutanoic acid ethyl ester], the ED50 on opioid receptor (setting [3]) amounted to 8.4 mg/kg; in test [2], 0.29 mg/kg. At mu receptor (setting [4]), the inhibition at 0.01 µM stood at 98%. Moreover, the inhibition at 0.1 µM at mu receptor (setting [5]) was 100%. Further, on mu receptor (setting [6]), the Ki amounted to 0.64 nM. The “Ratio (ratio of AD50 to ED50)” value in test [1] (setting [7]) is listed as 29.

For the compound `CC1CN(C[C@H](CC2CCCCC2)NC(=O)CCCC(=O)O)CCC1(C)c1cccc(O)c1` (single isomer, unassigned; (+)) [Example 16], the ED50 is above 20 mg/kg at opioid receptor (setting [3]) and 0.12 mg/kg in test [2]. For the same compound, the inhibition at 0.01 µM at mu receptor (setting [4]) is 97%. For the same compound, the inhibition at 0.1 µM at mu receptor (setting [5]) is 100%. For the same compound, the Ki at mu receptor (setting [6]) came to 0.96 nM. For the same compound, the “Ratio (ratio of AD50 to ED50)” value in test [1] (setting [7]) is listed as above 166.

Regarding `C[C@H]1CN(CCC(NC(=O)C(CCCNC(=N)N[N+](=O)[O-])NC(=O)CCCC(=O)NCc2ccccc2)c2ccccc2)CC[C@@]1(C)c1cccc(O)c1` (single isomer, unassigned; (-)) [Example 8, (-)-N-(1-phenyl-3-(trans-4-(3-hydroxyphenyl)-3,4-dimethyl-1-piperidinyl)propyl)-2-((1,5-dioxo-5-(phenylmethyl)amino)pentyl)amino-5-((imino(nitroamino)methyl)-amino)pentanamide], the ED50 at opioid receptor (setting [8]) is above 1.25 mg/kg; in test [2] it was 0.64 mg/kg. In addition, the inhibition at 0.01 µM at mu receptor (setting [4]) is 95%. Further, the inhibition at 0.1 µM on mu receptor (setting [5]) came to 99%. For the same compound, at mu receptor (setting [6]), the Ki was found to be 0.68 nM. The “Ratio (ratio of AD50 to ED50)” value in test [1] (setting [7]) is reported as above 2.

Regarding `CC(C)C(=O)NCCCC(=O)NC(CCCNC(=N)N[N+](=O)[O-])C(=O)NC(CCN1CC[C@@](C)(c2cccc(O)c2)[C@@H](C)C1)c1ccccc1` (single isomer, unassigned; (-)) [Example 9, (-)-N-(1-phenyl-3-(trans-4-(3-hydroxyphenyl)-3,4-dimethyl-1-piperidinyl)propyl)-2-((1-oxo-4-(2-methyl-1-oxopropyl)amino)butyl)amino-5-((imino(nitroamino)-methyl)amino)pentanamide], the ED50 on opioid receptor (setting [8]) was above 1.25 mg/kg; in test [2], 0.25 mg/kg. Moreover, at mu receptor (setting [5]), the inhibition at 0.1 µM amounted to 100%. The inhibition at 0.01 µM on mu receptor (20 min, pH 7.4, 10 nM test compound, [3H]naloxone 0.5 nM, […], read-out: % displacement at 10 nM) was 92%. Besides, the Ki on mu receptor (setting [6]) came out at 1.33 nM. The “Ratio (ratio of AD50 to ED50)” value in test [1] (setting [7]) is on record as above 5.

`C[C@H]1CN(CCC(CC2CCCCC2)NC(=O)CCC(=O)O)CC[C@@]1(C)c1cccc(O)c1` (stereo partly drawn) [Example 1, 4-[(3-(4-(3-hydroxyphenyl)-3,4-dimethyl-1-piperidinyl)-1-(cyclohexylmethyl)propyl)amino]-4-oxobutanoic acid monohydrate]: the ED50 at opioid receptor (mouse, read-out: AD50) was above 40 mg/kg; in test [2], 0.01 mg/kg. This compound came in with an inhibition constant Ki on mu receptor of 6.88 nM. The inhibition at 0.01 µM at mu receptor (setting [4]) came out at 72%. In addition, the inhibition at 0.1 µM on mu receptor (setting [5]) was found to be 94%. Also, in test [1] (mouse, in vivo), the “Ratio (ratio of AD50 to ED50)” value was above 4000.

As to `CCOC(=O)CCC(=O)NC(CCN1CC[C@@](C)(c2cccc(O)c2)[C@@H](C)C1)CC(C)C` (stereo partly drawn) [Example 2B, 4-[[1-[2-[4-(3-hydroxyphenyl)-3,4-dimethyl-1-piperidinyl]-ethyl]-3-methylbutyl)amino]-4-oxobutanoic acid ethyl ester], the ED50 at opioid receptor (setting [3]) was found to be 10.2 mg/kg; in test [2], 0.19 mg/kg. Also, the inhibition at 0.01 µM at mu receptor (setting [4]) was found to be 93%. Also, the inhibition at 0.1 µM on mu receptor (setting [5]) is 99%. In addition, at mu receptor (setting [6]), the Ki stood at 1.2 nM. Further, the “Ratio (ratio of AD50 to ED50)” value in test [1] (setting [7]) was 54.

For `CC(C)CC(CCN1CC[C@@](C)(c2cccc(O)c2)[C@@H](C)C1)NC(=O)CCCC(=O)O` (stereo partly drawn) [Example 4, 5-[[1-(2-methylpropyl)-3-[4-(3-hydroxyphenyl)-3,4-dimethyl-1-piperidinyl]propyl]amino]-5-oxopentanoic acid], the ED50 on opioid receptor (mouse, read-out: AD50) is 17.5 mg/kg; in test [2], 0.07 mg/kg. Moreover, the Ki at mu receptor turned out to be 1.41 nM. For the same compound, on mu receptor (setting [4]), the inhibition at 0.01 µM came to 86%. The inhibition at 0.1 µM at mu receptor (setting [5]) stood at 94%. In addition, in test [1] (mouse, in vivo), the “Ratio (ratio of AD50 to ED50)” value amounted to 250.

Take `CCOC(=O)CC(=O)N[C@H](Cc1ccccc1)CN1CC[C@@](C)(c2cccc(O)c2)[C@@H](C)C1` [Example 10, Ethyl trans-(3R,4R,R)-3-((2-(4-(3-hydroxyphenyl)-3,4-dimethyl-1-piperidinyl)-1-(D-(phenylmethyl)ethyl)amino))-3-oxopropionate hydrochloride]: the ED50 on opioid receptor (setting [3]) stood at 9.3 mg/kg; in test [2], 0.12 mg/kg. Moreover, the inhibition at 0.01 µM on mu receptor (setting [4]) worked out at 61%. In addition, the inhibition at 0.1 µM at mu receptor (setting [5]) was 94%. Also, the Ki on mu receptor (setting [6]) is 1.46 nM. In addition, in test [1] (setting [7]), the “Ratio (ratio of AD50 to ED50)” value was determined as 78.

Take `C[C@H]1CN(C[C@@H](Cc2ccccc2)NC(=O)CC(=O)O)CC[C@@]1(C)c1cccc(O)c1` [Example 11, Trans-3-((2-(4-(3-hydroxyphenyl)-3,4-dimethyl-1-piperidinyl)-1-(D-(phenylmethyl)ethyl)amino))-3-oxopropionic acid]: the ED50 on opioid receptor (setting [3]) is 12.4 mg/kg; in test [2] (0.5 h, read-out: ED50) it was 0.3 mg/kg. For the same compound, the inhibition at 0.01 µM on mu receptor (setting [9]) turned out to be 36%. The inhibition at 0.1 µM on mu receptor (setting [10]) stood at 80%. For the same compound, the “Ratio (ratio of AD50 to ED50)” value in test [1] (setting [7]) came to 41.

As to `CCOC(=O)CC(=O)N[C@H](Cc1ccccc1)CN1CC[C@](C)(c2cccc(O)c2)[C@H](C)C1` [Example 12, Ethyl trans-3-((2-(4-(3-hydroxyphenyl)-3,4-dimethyl-1-piperidinyl)-1-(D-(phenylmethyl)ethyl)amino))-3-oxopropionate hydrochloride], the ED50 was found to be 20 mg/kg at opioid receptor (setting [3]) and 0.20 mg/kg in test [2]. Moreover, the inhibition at 0.01 µM at mu receptor (setting [4]) was 43%. Also, the inhibition at 0.1 µM on mu receptor (setting [5]) amounted to 87%. Also, in test [1] (mouse, in vivo), the “Ratio (ratio of AD50 to ED50)” value was determined as 100.

As to `C[C@@H]1CN(C[C@@H](Cc2ccccc2)NC(=O)CC(=O)O)CC[C@]1(C)c1cccc(O)c1` [Example 13, Trans-3-((2-(4-(3-hydroxyphenyl)-3,4-dimethyl-1-piperidinyl)-1-(D-(phenylmethyl)ethyl)amino))-3-oxopropionic acid monohydrate], the ED50 is above 40 mg/kg at opioid receptor (setting [3]) and 0.29 mg/kg in test [2] (0.5 h, read-out: ED50). In addition, the inhibition at 0.01 µM on mu receptor (setting [9]) stood at 24%. Moreover, the inhibition at 0.1 µM at mu receptor (setting [10]) was 72%. Also, the “Ratio (ratio of AD50 to ED50)” value in test [1] (setting [7]) is above 138.

As for `CCNC(=O)N[C@H](Cc1ccccc1)CN1CC[C@](C)(c2cccc(O)c2)[C@H](C)C1` [Example 17, N-Ethyl-N'-2-(D-(1-(trans-4-(3-hydroxyphenyl)-3,4-dimethyl-1-piperidinyl)-3-phenyl)propyl)urea hydrochloride monohydrate], the ED50 at opioid receptor (setting [3]) is above 40 mg/kg; in test [2] (0.5 h, read-out: ED50), 3.28 mg/kg. Also, on mu receptor (setting [9]), the inhibition at 0.01 µM is 38%. Moreover, the inhibition at 0.1 µM at mu receptor (setting [10]) turned out to be 82%. The “Ratio (ratio of AD50 to ED50)” value in test [1] (setting [7]) was above 12.

For the compound `C[C@H]1CN(CC(Cc2ccccc2)NC(=O)CCCNC(=O)OC(C)(C)C)CC[C@@]1(C)c1cccc(O)c1` (stereo partly drawn) [Example 18, Trans-(4-((1-((4-(3-hydroxyphenyl)-3,4-dimethyl-1-piperidinyl)methyl)-2-phenylethyl)amino)-4-oxobutyl) carbamic acid, 1,1 dimethylethyl ester monohydrochloride], the ED50 was 1.31 mg/kg at opioid receptor (setting [3]) and 0.30 mg/kg in test [2]. Besides, the inhibition at 0.01 µM at mu receptor (setting [4]) was found to be 86%. The inhibition at 0.1 µM on mu receptor (setting [5]) is 100%. Besides, the Ki on mu receptor (setting [6]) stood at 0.63 nM. The “Ratio (ratio of AD50 to ED50)” value in test [1] (setting [7]) is 4.5.

As to `CC(=O)NC(CCCNC(=N)N[N+](=O)[O-])C(=O)NCCN1CCC(C)(c2cccc(O)c2)C(C)C1` (stereo not drawn) [Example 42, N-(2-(trans-4-(3-hydroxyphenyl)-3,4-dimethyl-1-piperidinyl)ethyl)-2-(acetylamino)-5-((imino(nitroamino)-methyl)amino)pentanamide monohydrate], the ED50 is above 20 mg/kg at opioid receptor (setting [3]) and 0.12 mg/kg in test [2] (0.5 h, read-out: ED50). Besides, the inhibition at 0.01 µM at mu receptor (setting [9]) came to 44%. Moreover, on mu receptor (setting [10]), the inhibition at 0.1 µM was determined as 89%. Moreover, the “Ratio (ratio of AD50 to ED50)” value in test [1] (setting [7]) is recorded as above 160.

In the case of `CC(C)CC(=O)NC(CCCNC(=N)N[N+](=O)[O-])C(=O)NCCN1CCC(C)(c2cccc(O)c2)C(C)C1` (stereo not drawn) [Example 43, Trans-N-(2-(4-(3-hydroxyphenyl)-3,4-dimethyl-1-piperidinyl)ethyl)-2-((3-methyl-1-oxobutyl)amino)-5-((imino(nitroamino)methyl)amino) pentanamide], the ED50 at opioid receptor (setting [3]) is above 10 mg/kg; in test [2] (0.5 h, read-out: ED50), below 1 mg/kg. The inhibition at 0.01 µM at mu receptor (setting [9]) is 59%. Further, at mu receptor (setting [10]), the inhibition at 0.1 µM was found to be 97%. In addition, the “Ratio (ratio of AD50 to ED50)” value in test [1] (setting [7]) is above 10.
